Tests used:
Assay in all cases: Bliss excess, mean over the matrix (fraction); higher = more synergy
A2058 (Melanoma) = tested on: A2058 (Melanoma)
How it was run: (§1)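 After 24 hours at 37°C and 5% CO2 in 1536-well plates, cells in DMEM/F12 or RPMI plus 10% FBS received two-drug dose matrices for 72 hours. Viability came from CellTiter-Glo 2.0 luminescence and was scaled as inhibition, anchored at 0 by vehicle wells and at 1 by blank wells. Combination Emax is taken as the second-highest inhibition in the matrix, and Bliss excess as the observed combination effect less EA + EB − EA·EB, with EA and EB the single-agent effects.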

[1] = tested on: CAL-62 (Thyroid Gland Carcinoma)
How it was run: as §1

[2] = tested on: FADU (Head and Neck Carcinoma)
How it was run: as §1

[3] = tested on: HCT-15 (Colorectal Carcinoma)
How it was run: as §1

[4] = tested on: KE-37 (T-Lymphoblastic Leukemia)
How it was run: as §1

[5] = tested on: L-1236 (Hodgkin's Lymphoma)
How it was run: as §1

[6] = tested on: LK-2 (Squamous Cell Lung Carcinoma)
How it was run: as §1

[7] = tested on: LXF-289 (Lung Adenocarcinoma)
How it was run: as §1

[8] = tested on: NCI-H446 (Small Cell Lung Carcinoma)
How it was run: as §1

[9] = tested on: OPM-2 (Plasma Cell Myeloma)
How it was run: as §1

[10] = tested on: OVMIU (Ovarian Carcinoma)
How it was run: as §1

[11] = tested on: PC-3_[JPC-3] (Lung Adenocarcinoma)
How it was run: as §1

[12] = tested on: PSN1 (Pancreatic Carcinoma)
How it was run: as §1

[13] = tested on: REH (B-Lymphoblastic Leukemia)
How it was run: as §1

SF268 (Low Grade Glioma) = tested on: SF268 (Low Grade Glioma)
How it was run: as §1

[14] = tested on: SHP-77 (Small Cell Lung Carcinoma)
How it was run: as §1

[15] = tested on: SK-PN-DW (Other Solid Carcinomas)
How it was run: as §1

[16] = tested on: TE-8 (Esophageal Squamous Cell Carcinoma)
How it was run: as §1

WM278 (Melanoma) = tested on: WM278 (Melanoma)
How it was run: as §1

WM793B (Melanoma) = tested on: WM793B (Melanoma)
How it was run: as §1

| Compound | Bliss excess (A2058 (Melanoma)) | Bliss excess [1] | Bliss excess [2] | Bliss excess [3] | Bliss excess [4] | Bliss excess [5] | Bliss excess [6] | Bliss excess [7] | Bliss excess [8] | Bliss excess [9] | Bliss excess [10] | Bliss excess [11] | Bliss excess [12] | Bliss excess [13] | Bliss excess (SF268 (Low Grade Glioma)) | Bliss excess [14] | Bliss excess [15] | Bliss excess [16] | Bliss excess (WM278 (Melanoma)) | Bliss excess (WM793B (Melanoma)) |
| --- | --- | --- | --- | --- | --- | --- | --- | --- | --- | --- | --- | --- | --- | --- | --- | --- | --- | --- | --- | --- |
| CC1(C)CCC(CN2CCN(c3ccc(C(=O)NS(=O)(=O)c4ccc(NCC5CCOCC5)c([N+](=O)[O-])c4)c(Oc4cnc5[nH]ccc5c4)c3)CC2)=C(c2ccc(Cl)cc2)C1 [Venetoclax] + C[C@@H](Nc1cc(F)cc(F)c1)c1cc(C(=O)N(C)C)cc2c(=O)cc(N3CCOCC3)oc12 [AZD8186] (first compound max 1 µM, 7x7, partner max 3 µM) | -0.0031 | -0.0173 | -0.0291 | -0.0184 | 0.0385 | -0.0261 | -0.0234 | -0.0008 | 0.135 | -0.0134 | -0.129 | -0.0326 | -0.0683 | 0.01 | -0.0353 | 0.0205 | -0.0038 | -0.0522 | -0.0199 | -0.016 |
| CC1(C)CCC(CN2CCN(c3ccc(C(=O)NS(=O)(=O)c4ccc(NCC5CCOCC5)c([N+](=O)[O-])c4)c(Oc4cnc5[nH]ccc5c4)c3)CC2)=C(c2ccc(Cl)cc2)C1 [Venetoclax] + Cc1cc2ncnn2cc1Nc1ncc2c(n1)n(C1CCOCC1)c(=O)n2C [AZD7648] (first compound max 1 µM, 7x7, partner max 10 µM) | 0.007 | -0.025 | -0.0241 | -0.0043 | 0.0325 | -0.0274 | 0.0102 | -0.0935 | -0.0181 | -0.0263 | -0.109 | -0.0445 | -0.0534 | 0.0108 | -0.0146 | -0.0088 | -0.054 | -0.0121 | -0.0476 | 0.0156 |
| CC1(C)CCC(CN2CCN(c3ccc(C(=O)NS(=O)(=O)c4ccc(NCC5CCOCC5)c([N+](=O)[O-])c4)c(Oc4cnc5[nH]ccc5c4)c3)CC2)=C(c2ccc(Cl)cc2)C1 [Venetoclax] + Cn1cnc2c(F)c(Nc3ccc(Br)cc3Cl)c(C(=O)NOCCO)cc21 [Selumetinib] (first compound max 1 µM, 7x7, partner max 3 µM) | -0.005 | -0.0114 | 0.0212 | -0.0231 | -0.0013 | -0.0319 | -0.0073 | -0.0312 | -0.0372 | -0.0093 | -0.0641 | -0.0715 | -0.0262 | -0.0467 | -0.0355 | 0.105 | -0.0308 | -0.0282 | -0.0319 | -0.0191 |

Source: the supplement of paper PMC11061612
